This is an account of results in patent publication EP0209274A2, “Furanone derivatives” (ELI LILLY AND COMPANY, priority 1985, dated 1987).

Molecules are shown by their SMILES. Where only a bound is given, the exact number is not on record here.

Assay [1] addresses Pancreatic phospholipase A2 (Homo sapiens, UniProt P04054). Put plainly: Phospholipase A2 (PLA2) Assay. It counts as biochemical. As to conditions: 30 µg/ml test compound; inhibition of 14C-free fatty acid formation. As for the experimental part:
The assay buffer contained 10 mM Tris-HCl buffer, pH 8.0, 100 mM NaCl, 1 mM CaCl2 and 1 mg/ml of bovine serum albumin. A toluene-ethanol (1:1 v/v) solution of phosphatidiylcholine, L-a-dipalmitoyl-(2-palmitoyl-1-^14C) obtained from New England Nuclear was evaporated to dryness in a flask under nitrogen and the assay buffer was added to give a substrate concentration of 9.0 x 10^-5M (specific activity = 27.7 mCi/mmol). The mixture was sonicated for 5 minutes in a Bransonic 220 Sonication Bath. Pancreatic phospholipase A2 (specific activity = 600 units/mg) was diluted with the assay buffer to give an enzyme concentration of 0.1 mg/ml. […] To initiate the enzyme reaction, 0.1 ml of the mixture containing the substrate was added to the enzyme solution and the reaction mixture was further incubated for 30 minutes at 37°C. The reaction was then terminated by the addition of 20 µl of 1M citric acid.
Fifty µl of the mixture was added to 10 ml of scintillation fluid [5.88 g of 2,5-diphenyl-oxazole and 118 mg of 1,4-bis(5-phenyloxazol-2-yl)benzene] dissolved in 650 ml of toluene and 350 ml of Triton X-100) and the radioactivity was determined in an Isocap/300 liquid scintillation counter (Searle Analytic Inc., Southfield, Michigan). Another 50 µl of the mixture was applied directly onto the spotting area of a silica gel plate (LK6D, Whatman, Clifton, N.J.) and subjected to thin layer chromatography in a solvent system of ethyl acetate:acetic acid:2,2,4-trimethylpentane:H20 (90:20:50:100, v/v/v). The silica gel on the plate was scraped in 1 cm sections, suspended in 5 ml of the Triton X-100 based scintillation fluid and the radioactivity was determined. Phosphatidylcholine remained at the origin while fatty acids migrated to a few centimeters (2-3 cm) below the solvent front. The percent of ^14C-free fatty acid formed with the test compound added was calculated as compared to the amount formed in control experiments where no test compound was added. […]

The target of assay [2] is T1, fatty acid cyclooxygenase (Homo sapiens, UniProt P23219).
T1 construct: Microsomes were prepared from 185 bags of human platelets; from tissue; host or cells: human platelets (solubilized microsomes, then electrofocusing and Sephadex G-200)
T1 sequence (P23219 24-599): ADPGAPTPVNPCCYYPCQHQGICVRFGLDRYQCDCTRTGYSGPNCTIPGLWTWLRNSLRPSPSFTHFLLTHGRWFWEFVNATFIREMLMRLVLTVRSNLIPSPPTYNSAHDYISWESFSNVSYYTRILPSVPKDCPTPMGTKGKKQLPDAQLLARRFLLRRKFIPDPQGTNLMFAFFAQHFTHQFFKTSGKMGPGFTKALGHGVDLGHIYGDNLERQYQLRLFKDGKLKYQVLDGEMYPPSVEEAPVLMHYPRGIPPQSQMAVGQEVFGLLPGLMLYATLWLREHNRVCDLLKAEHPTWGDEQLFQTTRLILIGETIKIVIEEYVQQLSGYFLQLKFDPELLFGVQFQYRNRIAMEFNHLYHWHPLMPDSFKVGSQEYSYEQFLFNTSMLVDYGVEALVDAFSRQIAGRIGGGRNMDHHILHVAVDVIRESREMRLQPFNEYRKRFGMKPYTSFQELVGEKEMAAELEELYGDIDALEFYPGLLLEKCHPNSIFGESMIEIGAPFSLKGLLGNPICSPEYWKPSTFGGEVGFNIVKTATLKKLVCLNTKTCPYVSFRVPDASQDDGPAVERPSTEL
Put plainly: Fatty Acid Cyclooxygenase (FCO) Assay. In kind it is biochemical. As to conditions: 30 µg/ml test compound; inhibition of formation of PGE2; enzyme from human platelets. The procedure:
Microsomes were prepared from 185 bags of human platelets (each bag containing the platelets from one pint of blood prepared using differential centrifugation procedures). The platelets from approximately 60 bags were prepared at one time. Platelet-rich plasma (500 g) was centrifuged at 10,000 x g for 20 minutes, and the platelet pellet was suspended in 100 ml of 0.1M. potassium phosphate buffer, pH 8.0, with a Teflon glass homogenizer and sonicated for 5.0 minutes with a Bronson Sonifier (Model 350) in a rosette flask cooled in ice water. Disrupted platelets were centrifuged 15 minutes at 10,000 x g. The supernatant was centrifuged at 100,000 x g for 90 minutes and the microsomal pellets were homogenized in 25 ml of 20% sucrose containing 1.0% Triton X-100 detergent. After 30 minutes at 4°C, the solubilized microsomes were centrifuged at 100,000 x g for 60 minutes. The yellow supernatant was removed and stored at -70°C.
The solubilized fatty acid cyclooxygenase was applied to a 440 ml electrofocusing column (LKB-8012) containing 1% phisolytes (Brinkman Instruments, Westburgh, NY), pH 2-11, with the cathode at the top of the column. The enzyme was layered onto the column at the appropriate time so that its sucrose concentration was equal to that of the column gradient. This was accomplished by checking the gradient concentration periodically with a sucrose hand refractometer. Electrofocusing was carried out for 16 hours with an initial voltage of 400 V and a final voltage of 900-1,000 volts. Fractions were collected (20 ml) and assayed for PGE2 formation. Active peak fractions were pooled and concentrated by ultrafiltration (XM 100A) to a volume of 3-5 ml.
Active fractions from electrofocusing were applied to a G-200 Sephadex column (2 cm x 46 cm) and eluted with 10 mM potassium phosphate buffer, pH 7.0, in 5 ml fractions. After assay, active fractions were pooled and concentrated to 1.0 ml by ultrafiltration (XM 100A), and kept frozen at -70°C.
Enzyme activity was determined by assaying for PGE2 formation by preincubating the enzyme with 10 mmol/l imidazole phosphate buffer, pH 8.0, 2 mmol/l epinephrine, 2 mmol/1 methemoglobin, and the test compound (30 pg/ml) in a total volume of 0.2 ml for one minute at 37°C. After preincubation, 5 mmol/1 ^14C-arachidonic acid were added and the mixture was incubated an additional 0.5 minutes at 37°C. The enzyme reaction was stopped by the addition of 20 µl of indomethacin (2 mg/ml) in alcohol.
The reaction mixture was spotted (50 pl) on a silica gel (LQ6D) plate and subjected to TLC. The solvent system consisted of chloroform-methanol-glacial acetic acid (90:5:5, v/v/v) and the relative mobilities were PGF2a = 0.235, and PGE2 = 0.47. The silica gel on the plate was scraped in 1 cm sections, suspended in 5 ml of the scintillation fluid [5.88 g of 2,5-diphenyl-oxazole and 118 mg of 1,4-bis(5-phenyloxazol-2-yl)benzene] dissolved in 650 ml of toluene and 350 ml of Triton X-100) and the radioactivity was determined in an Isocap/300 liquid scintillation counter (Searle Analytic, Inc., Southfield, MI). Another 50 µl of the mixture was added to 10 ml of the Triton X-100 based scintillation fluid, and the radioactivity was determined so that the amount of radioactivity recovery from the TLC plate could be ascertained. PGE2 formation for each test compound was determined as a percent of control experiments wherein no test compound was added. Data is expressed in Table I as the percent inhibition of formation of PGE2 at a test compound concentration of 30 pg/ml.

A word on the inhibition: it is the drop in the measured response relative to a control, in per cent. Lower therefore signals little suppression.

Sequence of Pancreatic phospholipase A2 (P04054 23-148): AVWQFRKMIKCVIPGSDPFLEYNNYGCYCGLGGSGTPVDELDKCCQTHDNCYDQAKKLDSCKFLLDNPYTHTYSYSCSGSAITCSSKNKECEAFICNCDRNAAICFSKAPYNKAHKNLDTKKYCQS

Turning to `O=C1C=C(CCCCCOc2ccccc2Cc2ccccc2)C(O)O1` (centres unmarked) [Example 18, 5-Hydroxy-4-[5-(2-benzylphenoxy)pentyl]-2(5H)-furanone], the inhibition at 30 µg/mL in assay [1] worked out at 44%; in assay [2], 20%.

For `CC/C=C\C/C=C\C/C=C\C/C=C\C/C=C\C/C=C\CC1=CC(=O)OC1O` (centres unmarked) [Example 9, (Z,Z,Z,Z,Z,Z)-4-(2,5,8,11,14,17-eicosa-hexaenyl)-5-hydroxy-2(5H)-furanone], the inhibition at 30 µg/mL in assay [1] stood at 0%; in assay [2] it was 46%.

With `CCCCCCCC/C=C\CCCCCCC1=CC(=O)OC1O` (centres unmarked) [Example 11, (Z)-4-(7-hexadecenyl)-5-hydroxy-2(5H)-furanone], the inhibition at 30 µg/mL in assay [1] was 51%; in assay [2], 61%.

In the case of `CCCCC/C=C\C/C=C\CCCCCCC1=CC(=O)OC1O` (centres unmarked) [Example 1, (Z,Z)-4-(7,10-hexadecadienyl)-5-hydroxy-2-(5H)-furanone], the inhibition at 30 µg/mL in assay [1] and in assay [2] was 77% each time.

In the case of `CC/C=C\C/C=C\C/C=C\CCCCCCC1=CC(=O)OC1O` (centres unmarked) [Example 2, (Z,Z,Z)-4-(7,10,13-hexadecatrienyl)-5-hydroxy-2(5H)-furanone], the inhibition at 30 µg/mL was determined as 82% in assay [1] and 75% in assay [2].

Turning to `O=C1C=C(CCCCOc2ccc3ccccc3c2)C(O)O1` (centres unmarked) [Example 12, 5-Hydroxy-4-[4-(2-naphthalenyloxy)butyl]-2(5H)-furanone], the inhibition at 30 µg/mL in assay [1] is 72%; in assay [2], 16%.

With `CCCCC/C=C\C/C=C\C/C=C\C/C=C\CCC1=CC(=O)OC1O` (centres unmarked) [Example 3, (Z,Z,Z,Z)-5-hydroxy-4-(3,6,9,12-octa-decatetraenyl)-2(5H)-furanone], the inhibition at 30 µg/mL in assay [1] came out at 41%; in assay [2], 67%.

With `CC(C)=CCCC(C)=CCCC(C)=CCCC1=CC(=O)OC1O` (centres unmarked) [Example 13, 5-Hydroxy-4-(4,8,12-trimethyl-3,7,11-tri-decatrienyl)-2(5H)-furanone], the results for the inhibition at 30 µg/mL in assay [1] and in assay [2] were 50% and 47%, respectively.

`CC(C)=CCC/C(C)=C/CCC1=CC(=O)OC1O` (centres unmarked) [Example 14, (E,E)-4-(4,8-dimethyl-3,7-nonadienyl)-5-hydroxy-2(5H)-furanone]: the figures for the inhibition at 30 µg/mL in assay [1] and in assay [2] were 72% and below 5%, respectively.

On to `CC(C)=CCCC(C)=CCCC(=CCCC1=CC(=O)OC1O)CO` (centres unmarked) [Example 19, 5-Hydroxy-4-[4-(hydroxymethyl)-8,12-dimethyl-3,7,11-tridecatrienyl]-2(5H)-furanone], for which the inhibition at 30 µg/mL in assay [1] stood at 76%; in assay [2], 14%.

Regarding `CCCCCCCC/C=C/CCCCCCC1=CC(=O)OC1O` (centres unmarked) [Example 4, (E)-4-(7-hexadecenyl)-5-hydroxy-2(5H)-furanone], the results for the inhibition at 30 µg/mL in assay [1] and in assay [2] were 0% and 52%, respectively.

On to `CCCCC/C=C\C/C=C\C/C=C\CCCC1=CC(=O)OC1O` (centres unmarked) [Example 5, (Z,Z,Z)-4-(4,7,10-hexadecatrienyl)-5-hydroxy-2(5H)-furanone], for which the inhibition at 30 µg/mL in assay [1] was 77%; in assay [2], 75%.

Take `CC(C)=CCCC(C)=CCCC(C=O)=CCCC1=CC(=O)OC1O` (centres unmarked) [Example 15, 2-[3-(2,5-dihydro-2-hydroxy-5-oxo-3-furanyl)-propylidene]-6,10-dimethyl-5,9-undecadienal]: the figures for the inhibition at 30 µg/mL in assay [1] and in assay [2] were 88% and 32%, respectively.
